{"source": "ChEMBL document CHEMBL1141928", "about": "“Non-peptidic alpha(v)beta3 antagonists containing indol-1-yl propionic acids” (Bioorg Med Chem Lett, 2005)", "key": {"Integrin alpha-V/beta-3": {"biological_target": "Integrin alpha-V/beta-3 (Homo sapiens, UniProt P05106+P06756)", "sequence (P05106 27-788 limits assumed)": "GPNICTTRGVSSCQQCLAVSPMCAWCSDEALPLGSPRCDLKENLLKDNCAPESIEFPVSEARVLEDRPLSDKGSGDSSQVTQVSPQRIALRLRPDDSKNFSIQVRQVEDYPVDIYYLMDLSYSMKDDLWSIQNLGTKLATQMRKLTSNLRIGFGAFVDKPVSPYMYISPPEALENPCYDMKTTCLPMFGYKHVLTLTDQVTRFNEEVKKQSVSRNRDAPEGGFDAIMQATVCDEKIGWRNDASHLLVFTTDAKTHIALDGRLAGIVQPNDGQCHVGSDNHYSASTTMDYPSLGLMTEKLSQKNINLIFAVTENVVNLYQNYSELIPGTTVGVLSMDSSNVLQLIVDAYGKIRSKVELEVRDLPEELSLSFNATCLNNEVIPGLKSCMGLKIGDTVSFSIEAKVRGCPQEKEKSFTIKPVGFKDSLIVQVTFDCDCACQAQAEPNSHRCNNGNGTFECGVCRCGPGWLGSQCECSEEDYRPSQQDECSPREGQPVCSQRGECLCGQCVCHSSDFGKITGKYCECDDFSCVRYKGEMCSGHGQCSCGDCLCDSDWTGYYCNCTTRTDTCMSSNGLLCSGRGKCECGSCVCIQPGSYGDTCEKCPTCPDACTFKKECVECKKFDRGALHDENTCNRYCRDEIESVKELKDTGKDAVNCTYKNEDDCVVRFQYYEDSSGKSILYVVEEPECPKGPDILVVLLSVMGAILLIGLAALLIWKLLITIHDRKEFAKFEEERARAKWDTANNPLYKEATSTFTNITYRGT", "sequence (P06756 31-889 limits assumed)": "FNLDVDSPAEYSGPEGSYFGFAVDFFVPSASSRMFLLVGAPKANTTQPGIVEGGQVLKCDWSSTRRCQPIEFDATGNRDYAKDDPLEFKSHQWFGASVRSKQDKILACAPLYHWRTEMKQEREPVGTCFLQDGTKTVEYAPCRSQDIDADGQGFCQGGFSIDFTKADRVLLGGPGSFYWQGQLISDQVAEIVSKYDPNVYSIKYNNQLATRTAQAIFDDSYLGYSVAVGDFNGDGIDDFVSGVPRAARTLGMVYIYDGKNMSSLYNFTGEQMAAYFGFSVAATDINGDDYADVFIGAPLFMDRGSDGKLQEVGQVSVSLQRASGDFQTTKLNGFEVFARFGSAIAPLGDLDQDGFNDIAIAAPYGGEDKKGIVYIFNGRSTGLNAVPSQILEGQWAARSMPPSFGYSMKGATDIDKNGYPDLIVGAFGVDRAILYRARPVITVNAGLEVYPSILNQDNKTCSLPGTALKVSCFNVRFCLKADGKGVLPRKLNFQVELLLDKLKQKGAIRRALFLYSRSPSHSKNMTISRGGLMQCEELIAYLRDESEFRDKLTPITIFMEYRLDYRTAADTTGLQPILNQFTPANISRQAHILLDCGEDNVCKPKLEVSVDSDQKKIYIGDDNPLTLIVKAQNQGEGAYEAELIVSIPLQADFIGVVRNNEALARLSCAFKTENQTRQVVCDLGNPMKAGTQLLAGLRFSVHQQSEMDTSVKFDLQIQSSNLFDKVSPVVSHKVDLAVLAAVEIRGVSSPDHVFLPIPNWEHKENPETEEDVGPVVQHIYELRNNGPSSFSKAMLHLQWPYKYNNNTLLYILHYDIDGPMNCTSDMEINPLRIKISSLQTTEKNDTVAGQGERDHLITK", "sequence (P06756 891-1048 limits assumed)": "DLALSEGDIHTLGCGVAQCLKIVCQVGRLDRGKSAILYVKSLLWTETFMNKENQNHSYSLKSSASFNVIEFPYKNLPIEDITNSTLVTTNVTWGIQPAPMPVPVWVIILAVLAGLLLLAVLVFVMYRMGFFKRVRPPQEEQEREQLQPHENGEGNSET", "experiment": "Inhibitory concentration against alphaV-beta3 integrin", "format": "protein-complex assay"}, "[1]": {"experiment": "Clearance in mice after intravenous dosage", "format": "ADME, organism-based", "conditions": "mouse, in vivo"}, "[2]": {"experiment": "Bioavailability in mice after […] dosage", "format": "ADME, organism-based", "conditions": "mouse, in vivo"}, "[3]": {"experiment": "Half life in mice after intravenous dosage", "format": "ADME, organism-based", "conditions": "mouse, in vivo"}}}
{"smiles": "COc1cccc(C(CC(=O)O)n2ccc3cc(OCCc4ccc5c(n4)NCCC5)ccc32)c1", "note": "(centres undefined)", "values": [{"measurement": "IC50", "setting": "Integrin alpha-V/beta-3", "value": 0.8, "unit": "nM"}]}
{"smiles": "COc1ccc(C(CC(=O)O)n2ccc3cc(OCCc4ccc5c(n4)NCCC5)ccc32)cc1", "note": "(centres undefined)", "values": [{"measurement": "IC50", "setting": "Integrin alpha-V/beta-3", "value": 0.7, "unit": "nM"}]}
{"smiles": "O=C(O)CC(c1ccccc1Cl)n1ccc2cc(OCCc3ccc4c(n3)NCCC4)ccc21", "note": "(centres undefined)", "values": [{"measurement": "IC50", "setting": "Integrin alpha-V/beta-3", "value": 55, "unit": "nM"}]}
{"smiles": "N#Cc1cncc(C(CC(=O)O)n2ccc3cc(OCCc4ccc5c(n4)NCCC5)ccc32)c1", "note": "(centres undefined)", "values": [{"measurement": "IC50", "setting": "Integrin alpha-V/beta-3", "value": 0.26, "unit": "nM"}]}
{"smiles": "O=C(O)CC(c1cccnc1)n1ccc2cc(OCCc3ccc4c(n3)NCCC4)ccc21", "note": "(centres undefined)", "values": [{"measurement": "IC50", "setting": "Integrin alpha-V/beta-3", "value": 0.25, "unit": "nM"}]}
{"smiles": "O=C(O)CC(c1ccc2c(c1)OCO2)n1ccc2cc(OCCc3ccc4c(n3)NCCC4)ccc21", "note": "(centres undefined)", "values": [{"measurement": "IC50", "setting": "Integrin alpha-V/beta-3", "value": 0.38, "unit": "nM"}, {"measurement": "clearance", "setting": "[1]", "value": 13, "unit": "mL/min/kg"}, {"measurement": "bioavailability", "setting": "[2]", "value": 73, "unit": "%"}, {"measurement": "half-life", "setting": "[3]", "value": 1.5, "unit": "h"}]}
{"smiles": "O=C(O)C(Cc1ccccc1)Cn1ccc2cc(OCCCNc3ccccn3)ccc21", "note": "(centres undefined)", "values": [{"measurement": "IC50", "setting": "Integrin alpha-V/beta-3", "value": 1900, "unit": "nM"}]}
{"smiles": "CCCC(CC(=O)O)n1ccc2cc(CCCc3ccc4c(n3)NCCC4)ccc21", "note": "(centres undefined)", "values": [{"measurement": "IC50", "setting": "Integrin alpha-V/beta-3", "value": 23, "unit": "nM"}]}
{"smiles": "O=C(O)CC(c1cccc(Cl)c1)n1ccc2cc(OCCc3ccc4c(n3)NCCC4)ccc21", "note": "(centres undefined)", "values": [{"measurement": "IC50", "setting": "Integrin alpha-V/beta-3", "value": 0.5, "unit": "nM"}]}
{"smiles": "O=C(O)CC(c1ccccc1)n1ccc2cc(OCCONC3=NCCN3)ccc21", "note": "(centres undefined)", "values": [{"measurement": "IC50", "setting": "Integrin alpha-V/beta-3", "value": 200, "unit": "nM"}]}
{"smiles": "O=C(O)c1ccccc1-n1ccc2cc(OCCCNc3ccccn3)ccc21", "values": [{"measurement": "IC50", "setting": "Integrin alpha-V/beta-3", "value": "> 20000", "unit": "nM"}]}
{"smiles": "O=C(O)CC(c1ccc2c(c1)OCO2)n1ccc2cc(OCCc3ccc4c(n3)NCCO4)ccc21", "note": "(centres undefined)", "values": [{"measurement": "IC50", "setting": "Integrin alpha-V/beta-3", "value": 8, "unit": "nM"}]}
{"smiles": "CCCC(CC(=O)O)n1ccc2cc(NC(=O)Cc3ccc4c(n3)NCCC4)ccc21", "note": "(centres undefined)", "values": [{"measurement": "IC50", "setting": "Integrin alpha-V/beta-3", "value": 78, "unit": "nM"}]}
{"smiles": "O=C(O)CC(c1ccccn1)n1ccc2cc(OCCc3ccc4c(n3)NCCC4)ccc21", "note": "(centres undefined)", "values": [{"measurement": "IC50", "setting": "Integrin alpha-V/beta-3", "value": 1.2, "unit": "nM"}]}
{"smiles": "O=C(O)CC(c1ccc(F)cc1)n1ccc2cc(OCCc3ccc4c(n3)NCCC4)ccc21", "note": "(centres undefined)", "values": [{"measurement": "IC50", "setting": "Integrin alpha-V/beta-3", "value": 0.7, "unit": "nM"}]}
{"smiles": "COc1ccccc1C(CC(=O)O)n1ccc2cc(OCCc3ccc4c(n3)NCCC4)ccc21", "note": "(centres undefined)", "values": [{"measurement": "IC50", "setting": "Integrin alpha-V/beta-3", "value": 1.1, "unit": "nM"}]}
{"smiles": "O=C(O)c1ccc(-n2ccc3cc(OCCCNc4ccccn4)ccc32)cc1", "values": [{"measurement": "IC50", "setting": "Integrin alpha-V/beta-3", "value": "> 20000", "unit": "nM"}]}
{"smiles": "O=C(O)CC(c1cccc2ccccc12)n1ccc2cc(OCCc3ccc4c(n3)NCCC4)ccc21", "note": "(centres undefined)", "values": [{"measurement": "IC50", "setting": "Integrin alpha-V/beta-3", "value": 37, "unit": "nM"}]}
{"smiles": "O=C(O)CC(c1cnc2ccccc2c1)n1ccc2cc(OCCc3ccc4c(n3)NCCC4)ccc21", "note": "(centres undefined)", "values": [{"measurement": "IC50", "setting": "Integrin alpha-V/beta-3", "value": 0.38, "unit": "nM"}]}
{"smiles": "CNc1cccc(CCOc2ccc3c(ccn3CCC(=O)O)c2)n1", "values": [{"measurement": "IC50", "setting": "Integrin alpha-V/beta-3", "value": 36, "unit": "nM"}]}
{"smiles": "O=C(O)CC(c1cccnc1)n1ccc2cc(OCC(F)(F)c3ccc4c(n3)NCCC4)ccc21", "note": "(centres undefined)", "values": [{"measurement": "IC50", "setting": "Integrin alpha-V/beta-3", "value": 130, "unit": "nM"}]}
{"smiles": "CS(=O)(=O)c1cncc(C(CC(=O)O)n2ccc3cc(OCCc4ccc5c(n4)NCCC5)ccc32)c1", "note": "(centres undefined)", "values": [{"measurement": "IC50", "setting": "Integrin alpha-V/beta-3", "value": 0.46, "unit": "nM"}]}
{"smiles": "COc1cncc(C(CC(=O)O)n2ccc3cc(OCCc4ccc5c(n4)NCCC5)ccc32)c1", "note": "(centres undefined)", "values": [{"measurement": "IC50", "setting": "Integrin alpha-V/beta-3", "value": 0.25, "unit": "nM"}]}
{"smiles": "CS(=O)(=O)c1ccc(C(CC(=O)O)n2ccc3cc(OCCc4ccc5c(n4)NCCC5)ccc32)cn1", "note": "(centres undefined)", "values": [{"measurement": "IC50", "setting": "Integrin alpha-V/beta-3", "value": 0.3, "unit": "nM"}]}
{"smiles": "CCCC(CC(=O)O)n1ccc2cc(OCCc3ccc4c(n3)NCCC4)ccc21", "note": "(centres undefined)", "values": [{"measurement": "IC50", "setting": "Integrin alpha-V/beta-3", "value": 5, "unit": "nM"}]}
{"smiles": "O=C(O)CC(c1ccc(-c2ccccc2)cc1)n1ccc2cc(OCCc3ccc4c(n3)NCCC4)ccc21", "note": "(centres undefined)", "values": [{"measurement": "IC50", "setting": "Integrin alpha-V/beta-3", "value": 40, "unit": "nM"}]}
{"smiles": "CC(Cn1ccc2cc(OCCCNc3ccccn3)ccc21)C(=O)O", "note": "(centres undefined)", "values": [{"measurement": "IC50", "setting": "Integrin alpha-V/beta-3", "value": 460, "unit": "nM"}]}
{"smiles": "O=C(O)CC(c1ccncc1)n1ccc2cc(OCCc3ccc4c(n3)NCCC4)ccc21", "note": "(centres undefined)", "values": [{"measurement": "IC50", "setting": "Integrin alpha-V/beta-3", "value": 0.9, "unit": "nM"}]}
{"smiles": "O=C(O)CC(c1ccccc1)n1ccc2cc(OCCc3ccc4c(n3)NCCC4)ccc21", "note": "(centres undefined)", "values": [{"measurement": "IC50", "setting": "Integrin alpha-V/beta-3", "value": 1, "unit": "nM"}]}
{"smiles": "O=C(O)CC(c1ccc2ccccc2c1)n1ccc2cc(OCCc3ccc4c(n3)NCCC4)ccc21", "note": "(centres undefined)", "values": [{"measurement": "IC50", "setting": "Integrin alpha-V/beta-3", "value": 37, "unit": "nM"}]}
{"smiles": "CCCC(Cn1ccc2cc(OCCCNc3ccccn3)ccc21)C(=O)O", "note": "(centres undefined)", "values": [{"measurement": "IC50", "setting": "Integrin alpha-V/beta-3", "value": 2000, "unit": "nM"}]}
